In ChEMBL document CHEMBL3351856, “Structural revision of kynapcin-12 by total synthesis, and inhibitory activities against prolyl oligopeptidase and cancer cells” (Bioorg Med Chem Lett, 2014):
Bridge positions count the residues as written; N and C are the ends. Peptide text beside a SMILES is read from it.

Legend:
Prolyl endopeptidase = target: T1, Prolyl endopeptidase (Homo sapiens, UniProt P48147); assay: Inhibition of prolyl oligopeptidase (unknown origin)
T1 sequence (P48147 whole entry): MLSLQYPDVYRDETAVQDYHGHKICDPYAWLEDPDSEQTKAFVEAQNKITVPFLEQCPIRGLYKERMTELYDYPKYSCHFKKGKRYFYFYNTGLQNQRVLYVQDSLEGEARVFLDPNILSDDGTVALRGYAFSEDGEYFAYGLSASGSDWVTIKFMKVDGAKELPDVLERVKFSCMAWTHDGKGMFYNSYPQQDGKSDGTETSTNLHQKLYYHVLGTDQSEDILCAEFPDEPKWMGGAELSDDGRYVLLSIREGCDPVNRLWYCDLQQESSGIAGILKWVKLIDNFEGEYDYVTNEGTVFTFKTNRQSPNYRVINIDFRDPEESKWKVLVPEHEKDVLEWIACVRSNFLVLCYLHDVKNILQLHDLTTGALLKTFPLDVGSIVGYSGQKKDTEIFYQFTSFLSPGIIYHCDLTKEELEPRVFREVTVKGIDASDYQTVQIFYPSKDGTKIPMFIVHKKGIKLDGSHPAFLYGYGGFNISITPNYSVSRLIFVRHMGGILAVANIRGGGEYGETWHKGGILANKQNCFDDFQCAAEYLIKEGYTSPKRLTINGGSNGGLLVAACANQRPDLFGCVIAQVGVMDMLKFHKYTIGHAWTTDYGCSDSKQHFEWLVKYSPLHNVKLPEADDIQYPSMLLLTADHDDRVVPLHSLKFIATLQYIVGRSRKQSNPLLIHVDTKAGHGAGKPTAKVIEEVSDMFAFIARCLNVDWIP

cells = conditions: Homo sapiens, HL-60, 48 h
Description: Cytotoxicity against human HL60 cells after 48 hrs by MTT assay

SMILES	IC50 (Prolyl endopeptidase) [µM]	IC50 (cells) [µM]
CC[C@H](C)[C@H](NC(=O)[C@H](Cc1ccccc1)NC(=O)[C@@H](NC(=O)[C@H](Cc1cnc[nH]1)NC(=O)CNC(=O)CNC(=O)[C@H](Cc1ccccc1)NC(=O)[C@H](CC(C)C)NC(=O)[C@@H]1CC(=O)NCC(=O)N[C@@H](Cc2ccc(O)cc2)C(=O)N2CCC[C@H]2C(=O)N[C@@H](Cc2c[nH]c3ccccc23)C(=O)N[C@@H](Cc2c[nH]c3ccccc23)C(=O)N[C@@H](CC(=O)O)C(=O)N[C@@H](Cc2ccc(O)cc2)C(=O)N[C@@H](CCCNC(=N)N)C(=O)N1)[C@@H](C)O)C(=O)N[C@@H](CO)C(=O)N1CCC[C@H]1C(=O)O (GYPWWDYRDLFGGHTFISP-OH; lactam N-9)	1.4	–
COCc1c(COC)c(-c2ccc(O[Si](C)(C)C(C)(C)C)cc2)c(COC)c(COC)c1-c1ccc(O[Si](C)(C)C(C)(C)C)cc1	> 50	14.4
CC(=O)Oc1c(OC(C)=O)c(-c2ccc(O)cc2)c(O)c(O)c1-c1ccc(O)cc1	–	> 20
COCC1=C(c2ccc(O[Si](C)(C)C(C)(C)C)cc2)C(=O)C(COC)=C(c2ccc(O[Si](C)(C)C(C)(C)C)cc2)C1=O	–	6.5
CC(=O)OC1=C(c2ccc(O)cc2)C(=O)C(OC(C)=O)=C(c2ccc(O)cc2)C1=O	–	> 20
COCc1c(OC(C)=O)c(-c2ccc(O[Si](C)(C)C(C)(C)C)cc2)c(COC)c(OC(C)=O)c1-c1ccc(O[Si](C)(C)C(C)(C)C)cc1	> 50	19.1

The next lines start with the values.

IC50 (Prolyl endopeptidase) [µM]	IC50 (cells) [µM]	SMILES
3.5	4.2	CC(=O)Oc1c(OC(C)=O)c(-c2ccc(O[Si](C)(C)C(C)(C)C)cc2)c2c(c1-c1ccc(O[Si](C)(C)C(C)(C)C)cc1)OC(OC(C)=O)O2
15.1	2.8	CC(C)(C)[Si](C)(C)Oc1ccc(C2=C3OCOC3=C(c3ccc(O[Si](C)(C)C(C)(C)C)cc3)C(=O)C2=O)cc1
–	2.9	CC(=O)Oc1c(OC(C)=O)c(-c2ccc(O[Si](C)(C)C(C)(C)C)cc2)c2c(c1-c1ccc(O[Si](C)(C)C(C)(C)C)cc1)OCO2
